Reference: ChEMBL document CHEMBL4184209, “Identification and initial optimization of inhibitors of Clostridium difficile (C. difficile) toxin B (TcdB)” (Bioorg Med Chem Lett, 2018)
The source made the active and inactive calls.

Key:
[1] = tested on: Bacteroides fragilis; assay: Effect on growth of Bacteroides fragilis at 0.5 to 100 uM incubated for 48 hrs under anaerobic conditions by spectrophotometry; type: organism-based
[2] = tested on: Bifidobacterium longum; assay: Effect on growth of Bifidobacterium longum at 0.5 to 100 uM incubated for 24 hrs under anaerobic conditions by spectrophotometry; type: organism-based
[3] = tested on: Clostridioides difficile; assay: Effect on growth of Clostridium difficile at 0.5 to 100 uM incubated for 24 hrs under anaerobic conditions by spectrophotometry; type: functional, organism-based
[4] = tested on: Limosilactobacillus reuteri; assay: Effect on growth of Lactobacillus reuteri at 0.5 to 100 uM incubated for 24 hrs under anaerobic conditions by spectrophotometry; type: organism-based
[5] = Stability in human liver microsomes assessed as parent compound remaining level incubated for 15 mins; type: ADME, microsome; details: read-out: Stability
[6] = biological target: T1, Toxin B (Clostridioides difficile, UniProt P18177); assay: Inhibition of Clostridium difficile toxin B […] assessed as reduction in caspase 3/7 activation pre-incubated for 1 hr before TcdB addition by luminescence based assay1; type: cell-based
[7] = biological target: T1, Toxin B; assay: Inhibition of C-terminal 6-His tagged recombinant Clostridium difficile toxin B catalytic fragment (Met1 to Leu543 residues) assessed as reduction in glucosyltransferase domain UDP-glucose hydrolysis activity using UDP-glucose and ADP Alexa633 tracer incubated fore 3 hrs by fluorescence polarization assay
[8] = Stability in mouse liver microsomes assessed as parent compound remaining level incubated for 15 mins; type: ADME, microsome; details: read-out: Stability
[9] = AUC (0 to 24 hrs) in CD1 mouse at 1 mg/kg, iv; type: ADME, organism-based; set-up: dose 1 mg/kg, time < 24 hr, route intravenous; details: in vivo
[10] = Apparent volume of distribution in CD1 mouse at 1 mg/kg, iv; type: ADME, organism-based; details: in vivo, read-out: Vz
[11] = AUC (0 to 24 hrs) in CD1 mouse at 10 mg/kg, po; type: ADME, organism-based; set-up: dose 10 mg/kg, time < 24 hr, route oral; details: in vivo
[12] = biological target: Toxin A (Clostridioides difficile, UniProt P16154); assay: Inhibition of Clostridium difficile toxin A […] assessed as reduction in caspase 3/7 activation pre-incubated for 1 hr before TcdA addition by luminescence based assay1; type: cell-based
[13] = Stability in mouse plasma assessed as parent compound remaining measured during 0 to 120 mins post dose; type: ADME, cell-free
[14] = Cmax in CD1 mouse at 10 mg/kg, po; type: ADME, organism-based; set-up: dose 10 mg/kg, route oral; details: in vivo
[15] = Cmax in CD1 mouse at 1 mg/kg, iv; type: ADME, organism-based; set-up: dose 1 mg/kg, route intravenous; details: in vivo
[16] = Tmax in CD1 mouse at 10 mg/kg, po; type: ADME, organism-based; details: in vivo
[17] = Elimination half life in CD1 mouse at 1 mg/kg, iv; type: ADME, organism-based; details: in vivo, read-out: beta t1/2 (converted)
[18] = Clearance in CD1 mouse at 1 mg/kg, iv; type: ADME, organism-based; details: in vivo
[19] = Stability in mouse plasma assessed as parent compound remaining measured after 15 mins post dose; type: ADME, cell-free; details: read-out: Stability
[20] = Stability in mouse plasma assessed as parent compound remaining measured after 2 hrs post dose; type: ADME, cell-free

T1 sequence (P18177 whole entry, the tested form may be a part): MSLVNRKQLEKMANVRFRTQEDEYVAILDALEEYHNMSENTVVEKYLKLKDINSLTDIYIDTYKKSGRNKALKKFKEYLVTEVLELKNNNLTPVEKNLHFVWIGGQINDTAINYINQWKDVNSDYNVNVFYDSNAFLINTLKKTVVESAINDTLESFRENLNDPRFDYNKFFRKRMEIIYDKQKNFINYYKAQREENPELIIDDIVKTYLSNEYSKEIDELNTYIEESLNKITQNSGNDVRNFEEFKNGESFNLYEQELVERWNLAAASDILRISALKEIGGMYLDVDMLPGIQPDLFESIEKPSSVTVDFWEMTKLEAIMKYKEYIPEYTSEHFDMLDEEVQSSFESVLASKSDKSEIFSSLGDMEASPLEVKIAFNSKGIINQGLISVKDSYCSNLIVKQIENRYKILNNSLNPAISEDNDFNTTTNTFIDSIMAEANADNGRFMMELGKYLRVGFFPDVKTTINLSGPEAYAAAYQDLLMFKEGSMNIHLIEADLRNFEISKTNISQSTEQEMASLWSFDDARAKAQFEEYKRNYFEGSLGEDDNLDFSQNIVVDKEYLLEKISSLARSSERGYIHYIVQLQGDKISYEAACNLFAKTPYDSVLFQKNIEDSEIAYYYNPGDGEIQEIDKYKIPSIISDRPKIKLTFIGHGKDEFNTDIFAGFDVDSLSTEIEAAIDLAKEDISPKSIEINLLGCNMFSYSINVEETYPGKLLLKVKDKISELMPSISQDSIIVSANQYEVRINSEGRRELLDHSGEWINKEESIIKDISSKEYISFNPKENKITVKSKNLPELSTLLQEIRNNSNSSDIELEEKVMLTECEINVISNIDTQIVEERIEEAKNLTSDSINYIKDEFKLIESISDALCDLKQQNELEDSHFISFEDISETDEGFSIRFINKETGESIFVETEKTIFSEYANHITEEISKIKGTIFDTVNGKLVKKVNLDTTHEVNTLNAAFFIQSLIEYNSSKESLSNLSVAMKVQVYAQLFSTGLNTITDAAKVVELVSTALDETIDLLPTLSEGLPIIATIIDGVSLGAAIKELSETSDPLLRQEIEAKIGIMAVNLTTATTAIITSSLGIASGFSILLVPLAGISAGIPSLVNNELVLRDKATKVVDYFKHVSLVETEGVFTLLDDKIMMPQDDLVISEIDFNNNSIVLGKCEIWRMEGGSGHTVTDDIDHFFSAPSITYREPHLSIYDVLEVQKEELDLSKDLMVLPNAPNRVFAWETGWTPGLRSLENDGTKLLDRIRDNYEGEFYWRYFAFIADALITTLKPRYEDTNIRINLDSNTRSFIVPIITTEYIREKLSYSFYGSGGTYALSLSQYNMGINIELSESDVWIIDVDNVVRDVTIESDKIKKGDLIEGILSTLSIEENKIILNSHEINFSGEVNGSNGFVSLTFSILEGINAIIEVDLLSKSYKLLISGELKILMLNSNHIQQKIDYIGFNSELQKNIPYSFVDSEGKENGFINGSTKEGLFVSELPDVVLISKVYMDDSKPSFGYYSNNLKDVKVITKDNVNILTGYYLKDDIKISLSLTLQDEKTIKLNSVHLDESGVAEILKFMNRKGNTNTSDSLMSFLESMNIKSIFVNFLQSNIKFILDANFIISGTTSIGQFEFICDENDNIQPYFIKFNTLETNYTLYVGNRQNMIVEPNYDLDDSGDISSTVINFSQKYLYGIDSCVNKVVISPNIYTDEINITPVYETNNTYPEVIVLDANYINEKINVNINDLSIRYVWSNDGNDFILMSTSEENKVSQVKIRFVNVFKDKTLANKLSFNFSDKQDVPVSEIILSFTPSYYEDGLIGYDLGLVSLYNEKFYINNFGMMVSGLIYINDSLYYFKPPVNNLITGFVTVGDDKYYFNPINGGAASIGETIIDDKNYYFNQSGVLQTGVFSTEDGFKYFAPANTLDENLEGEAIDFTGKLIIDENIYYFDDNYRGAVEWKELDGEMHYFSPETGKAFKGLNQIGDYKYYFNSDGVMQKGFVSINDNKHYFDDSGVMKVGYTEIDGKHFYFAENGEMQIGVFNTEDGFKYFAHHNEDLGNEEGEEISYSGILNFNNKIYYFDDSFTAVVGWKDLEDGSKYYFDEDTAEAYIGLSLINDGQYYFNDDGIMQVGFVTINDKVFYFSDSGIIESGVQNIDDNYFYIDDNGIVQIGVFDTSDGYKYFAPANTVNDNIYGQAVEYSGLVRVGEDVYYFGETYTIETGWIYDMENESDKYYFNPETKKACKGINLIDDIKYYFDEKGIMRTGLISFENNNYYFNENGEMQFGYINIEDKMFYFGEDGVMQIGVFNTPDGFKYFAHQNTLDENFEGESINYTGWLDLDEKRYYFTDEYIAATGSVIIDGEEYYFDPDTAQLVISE
Chain of Toxin A (P16154 whole entry): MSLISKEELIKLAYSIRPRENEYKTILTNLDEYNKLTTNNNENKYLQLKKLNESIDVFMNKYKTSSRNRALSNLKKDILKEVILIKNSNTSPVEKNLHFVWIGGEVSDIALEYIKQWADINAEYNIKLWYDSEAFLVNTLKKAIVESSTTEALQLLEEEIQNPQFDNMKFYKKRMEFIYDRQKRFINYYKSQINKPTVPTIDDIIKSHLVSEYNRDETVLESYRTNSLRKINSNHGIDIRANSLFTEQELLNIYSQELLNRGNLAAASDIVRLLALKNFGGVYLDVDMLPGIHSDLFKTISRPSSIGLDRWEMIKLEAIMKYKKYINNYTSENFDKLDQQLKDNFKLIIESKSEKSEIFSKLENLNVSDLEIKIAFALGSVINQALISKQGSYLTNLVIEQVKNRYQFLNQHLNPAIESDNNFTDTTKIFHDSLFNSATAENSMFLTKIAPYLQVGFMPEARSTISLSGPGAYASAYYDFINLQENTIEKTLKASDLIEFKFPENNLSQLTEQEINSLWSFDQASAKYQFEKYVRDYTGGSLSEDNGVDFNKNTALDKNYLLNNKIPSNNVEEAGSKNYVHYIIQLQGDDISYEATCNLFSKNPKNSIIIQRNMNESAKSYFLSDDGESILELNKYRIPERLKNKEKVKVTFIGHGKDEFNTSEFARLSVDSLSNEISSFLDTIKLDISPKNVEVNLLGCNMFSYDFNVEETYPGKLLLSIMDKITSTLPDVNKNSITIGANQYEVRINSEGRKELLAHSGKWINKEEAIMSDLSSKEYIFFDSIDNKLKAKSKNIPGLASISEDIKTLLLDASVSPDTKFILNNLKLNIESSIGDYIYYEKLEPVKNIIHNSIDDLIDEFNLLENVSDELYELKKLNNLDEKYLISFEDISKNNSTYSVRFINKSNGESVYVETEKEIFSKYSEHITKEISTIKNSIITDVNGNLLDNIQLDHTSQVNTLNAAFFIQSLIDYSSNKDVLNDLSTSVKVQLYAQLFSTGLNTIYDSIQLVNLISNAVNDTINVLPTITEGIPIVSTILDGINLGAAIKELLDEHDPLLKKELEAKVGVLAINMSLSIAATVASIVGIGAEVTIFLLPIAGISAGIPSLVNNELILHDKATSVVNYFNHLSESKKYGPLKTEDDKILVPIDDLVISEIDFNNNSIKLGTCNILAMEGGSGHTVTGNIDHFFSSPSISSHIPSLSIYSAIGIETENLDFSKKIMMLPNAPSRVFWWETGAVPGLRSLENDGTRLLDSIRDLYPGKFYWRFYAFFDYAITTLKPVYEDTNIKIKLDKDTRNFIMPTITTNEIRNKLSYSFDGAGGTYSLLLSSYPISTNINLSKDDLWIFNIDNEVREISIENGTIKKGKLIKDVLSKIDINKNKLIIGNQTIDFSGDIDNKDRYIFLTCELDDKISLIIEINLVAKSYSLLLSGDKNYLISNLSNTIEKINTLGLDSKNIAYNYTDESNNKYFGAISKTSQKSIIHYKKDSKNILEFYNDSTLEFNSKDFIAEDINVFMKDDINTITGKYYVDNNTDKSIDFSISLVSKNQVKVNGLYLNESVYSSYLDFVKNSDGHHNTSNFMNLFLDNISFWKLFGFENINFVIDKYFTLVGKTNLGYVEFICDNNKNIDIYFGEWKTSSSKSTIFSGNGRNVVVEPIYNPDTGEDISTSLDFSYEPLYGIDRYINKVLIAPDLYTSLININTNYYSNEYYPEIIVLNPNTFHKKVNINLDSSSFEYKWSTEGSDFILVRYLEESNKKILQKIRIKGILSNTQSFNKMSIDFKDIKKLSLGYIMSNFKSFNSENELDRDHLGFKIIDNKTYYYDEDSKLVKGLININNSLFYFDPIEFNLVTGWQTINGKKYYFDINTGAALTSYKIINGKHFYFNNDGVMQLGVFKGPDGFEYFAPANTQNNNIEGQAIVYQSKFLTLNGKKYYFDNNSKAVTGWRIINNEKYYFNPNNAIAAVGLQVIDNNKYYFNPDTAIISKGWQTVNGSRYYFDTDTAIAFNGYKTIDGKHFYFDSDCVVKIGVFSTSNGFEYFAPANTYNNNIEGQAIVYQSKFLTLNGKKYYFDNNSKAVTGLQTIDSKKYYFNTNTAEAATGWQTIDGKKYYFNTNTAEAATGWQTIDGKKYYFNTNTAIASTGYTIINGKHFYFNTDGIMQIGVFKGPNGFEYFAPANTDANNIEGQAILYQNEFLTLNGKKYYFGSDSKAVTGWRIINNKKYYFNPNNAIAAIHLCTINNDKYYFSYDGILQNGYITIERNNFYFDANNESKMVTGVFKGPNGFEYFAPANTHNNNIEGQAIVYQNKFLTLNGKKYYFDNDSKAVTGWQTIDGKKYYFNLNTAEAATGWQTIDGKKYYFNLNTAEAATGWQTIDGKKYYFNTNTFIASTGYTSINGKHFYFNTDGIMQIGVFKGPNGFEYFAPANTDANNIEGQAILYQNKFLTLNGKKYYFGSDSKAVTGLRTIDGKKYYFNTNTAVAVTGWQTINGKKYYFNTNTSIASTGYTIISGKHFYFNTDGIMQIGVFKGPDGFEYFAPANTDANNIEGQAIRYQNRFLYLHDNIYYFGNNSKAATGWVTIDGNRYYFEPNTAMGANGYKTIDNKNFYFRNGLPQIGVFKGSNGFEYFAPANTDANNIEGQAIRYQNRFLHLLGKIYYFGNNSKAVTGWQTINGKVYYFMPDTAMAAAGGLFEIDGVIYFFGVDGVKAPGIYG

Q: For `O=C(Nc1ccccn1)c1ccc(CN2C(=O)c3ccc(Cl)cc3NC(=O)[C@H]2Cc2cccnc2)cc1`, which Activity [1] is on record?
A: Non-Toxic

Q: What about the Activity [2] of the same compound?
A: Non-Toxic

Q: And the Activity [3]?
A: inactive

Q: And the Activity [4]?
A: Non-Toxic

Q: And the remaining at 0.25 h [5]?
A: 97%

Q: What about the IC50 [6] of the same compound?
A: 4500 nM

Q: And the IC50 [7]?
A: 9 nM

Q: What about the remaining at 0.25 h [8] of the same compound?
A: 57%

Q: For `Cc1cc(NC(=O)c2ccc(CN3C(=O)c4ccc(Cl)cc4NC(=O)[C@H]3Cc3cccnc3)cc2)no1`, which Activity [1] is on record?
A: Non-Toxic

Q: And the Activity [2]?
A: Non-Toxic

Q: What about the Activity [3] of the same compound?
A: inactive

Q: What about the Activity [4] of the same compound?
A: Non-Toxic

Q: What about the remaining at 0.25 h [5] of the same compound?
A: 100%

Q: What about the IC50 [6] of the same compound?
A: 19000 nM

Q: And the IC50 [7]?
A: 50 nM

Q: What about the remaining at 0.25 h [8] of the same compound?
A: 31%

Q: Which Activity [1] does the source give for `O=C(Nc1cnccn1)c1ccc(CN2C(=O)c3ccc(Cl)cc3NC(=O)[C@H]2Cc2cccnc2)cc1` here?
A: Non-Toxic

Q: And the Activity [2]?
A: Non-Toxic

Q: What about the Activity [3] of the same compound?
A: inactive

Q: And the Activity [4]?
A: Non-Toxic

Q: And the remaining at 0.25 h [5]?
A: 92%

Q: And the IC50 [6]?
A: 13000 nM

Q: What about the IC50 [7] of the same compound?
A: 78 nM

Q: And the remaining at 0.25 h [8]?
A: 98%

Q: Which Activity [1] does the source give for `Cc1ccc(NC(=O)c2ccc(CN3C(=O)c4ccc(Cl)cc4NC(=O)[C@H]3Cc3ccccn3)cc2)nc1` here?
A: Non-Toxic

Q: And the AUC(0-t) at 24 h [9]?
A: 200 ng·h/mL

Q: And the Activity [2]?
A: Non-Toxic

Q: What about the Vd [10] of the same compound?
A: 6.9 L/kg

Q: And the AUC(0-t) at 24 h [11]?
A: 1070 ng·h/mL

Q: And the IC50 [12]?
A: 3200 nM

Q: And the Stability [13]?
A: Unstable

Q: And the Cmax [14]?
A: 2690 ng/mL

Q: And the Activity [3]?
A: inactive

Q: And the Activity [4]?
A: Non-Toxic

Q: What about the remaining at 0.25 h [5] of the same compound?
A: 63%

Q: What about the Cmax [15] of the same compound?
A: 1030 ng/mL

Q: What about the IC50 [6] of the same compound?
A: 170 nM

Q: What about the Tmax [16] of the same compound?
A: 15 min

Q: What about the IC50 [7] of the same compound?
A: 1 nM

Q: What about the half-life [17] of the same compound?
A: 60 min

Q: And the clearance [18]?
A: 76 mL/min/kg

Q: And the remaining at 0.25 h [8]?
A: 43%

Q: Which Activity [1] does the source give for `O=C(Nc1nccs1)c1ccc(CN2C(=O)c3ccc(Cl)cc3NC(=O)[C@H]2Cc2cccnc2)cc1` here?
A: Non-Toxic

Q: And the Activity [2]?
A: Non-Toxic

Q: What about the Activity [3] of the same compound?
A: inactive

Q: And the Activity [4]?
A: Non-Toxic

Q: And the remaining at 0.25 h [5]?
A: 61%

Q: And the IC50 [6]?
A: 20000 nM

Q: And the IC50 [7]?
A: 42 nM

Q: What about the remaining at 0.25 h [8] of the same compound?
A: 67%

Q: With `COc1ccc(NC(=O)c2ccc(CN3C(=O)c4ccc(Cl)cc4NC(=O)[C@H]3Cc3ccccn3)cc2)nc1` as the compound, how does the Activity [1] read?
A: Non-Toxic

Q: And the Activity [2]?
A: Non-Toxic

Q: What about the IC50 [12] of the same compound?
A: 1100 nM

Q: And the Activity [3]?
A: inactive

Q: And the Activity [4]?
A: Non-Toxic

Q: What about the remaining at 0.25 h [5] of the same compound?
A: 81%

Q: What about the IC50 [6] of the same compound?
A: 43 nM

Q: And the IC50 [7]?
A: 3 nM

Q: And the remaining at 0.25 h [8]?
A: 61%

Q: Which results are given for `COc1cnc(NC(=O)c2ccc(CN3C(=O)c4ccc(Cl)cc4NC(=O)[C@H]3Cc3ccccn3)cc2)nc1`?
A: Activity [1]: Non-Toxic; AUC(0-t) at 24 h [9]: 2 ng·h/mL; Activity [2]: Non-Toxic; remaining at 0.25 h [19]: 50%; AUC(0-t) at 24 h [11]: 181 ng·h/mL; Stability [20]: Unstable; IC50 [12]: 2600 nM; Cmax [14]: 27 ng/mL; Activity [3]: inactive; Activity [4]: Non-Toxic; remaining at 0.25 h [5]: 90%; Cmax [15]: 2 ng/mL; IC50 [6]: 520 nM; Tmax [16]: 30 min; IC50 [7]: 7 nM; remaining at 0.25 h [8]: 77%
